Like-named read-outs stand apart in the source and are kept apart here.
Assays:
[1] = tested on: BET BD2; conditions: public sources, not a head-to-head trial, cited from earlier work; for BD2: comparator BET inhibitors; for Selectivity (BD1/BD2): comparator
[2] = target: T1, BRD4 BD1 (Homo sapiens, UniProt O60885); assay: NanoBRET bromodomain assay, NanoLuc-BRD4-BD1 in HEK293 cells; assay type: binding
T1 construct: HEK293 cells were transfected using NanoLuc-BRD4-BD1 or NanoLuc-BRD4-BD2 fusion vectors
Method: Exemplary compounds of the disclosure are active against BRD4 BD2 and selective over BRD4 BD1. BRD4 is a representative example of the BET family, as the binding sites of all BET family members are structurally similar. […] IC50s and fold selectivity's are determined as described below and are represented in Table 1.
(§1) Plates were then incubated at 37° C.+5% CO2 incubator for 2 hours.
(§2) Fold Selectivity Calculated (IC50 BD1/IC50 BD2).

[3] = target: T2, BRD4 BD2 (Homo sapiens, UniProt O60885); assay: NanoBRET bromodomain assay, NanoLuc-BRD4-BD2 in HEK293 cells; assay type: binding; conditions: for Fold Selectivity BRD4 BD1/BD2: IC50 BD1/IC50 BD2, qualitative if an IC50 is at the upper limit
T2 construct: HEK293 cells were transfected using NanoLuc-BRD4-BD1 or NanoLuc-BRD4-BD2 fusion vectors
Method: as §1, §2

Compound	BD2 [1] [nM]	Selectivity (BD1/BD2) ([1]; nanoBRET assay) [x]	IC50 [2] [nM]	IC50 [3] [nM]	Fold Selectivity BRD4 BD1/BD2 [3]	Selectivity (BD1/BD2) ([1]; FRET)
CNc1nc(-c2nc3ccc(N4CCN(C)CC4)cc3n2Cc2ccccc2)cn2c(C)nnc12 [BI-894999]	41	0.1				
CC(C)c1cc(-c2cc3c(-c4cc(=O)n(C)cc4-c4ccccc4)cn(C)c(=O)c3[nH]2)ccc1F [Example 71]			> 1000	50 to 200	xx (Fold >50 and ≤200)	
CC(C)n1cc(-c2cc3c(-c4cc(=O)n(C)cc4-c4cccc(CS(C)(=O)=O)c4)cn(C)c(=O)c3[nH]2)cn1 [Example 72]			> 1000	200 to 1000	x (Fold >2 and ≤50)	
Cn1cc(-c2cccc(CN3CCNCC3)c2)c(-c2cn(C)c(=O)c3[nH]c(-c4ccc(F)cc4F)cc23)cc1=O [Example 73]			> 1000	200 to 1000	x (Fold >2 and ≤50)	
COCCOc1cccc(-c2cn(C)c(=O)cc2-c2cn(C)c(=O)c3[nH]c(-c4cnn(C(C)C)c4)cc23)c1 [Example 74]			> 1000	10 to 50	xx (Fold >50 and ≤200)	
CC(C)n1cc(-c2cc3c(-c4cc(=O)n(C)cc4-c4cccc(OCCO)c4)cn(C)c(=O)c3[nH]2)cn1 [Example 75]			> 1000	200 to 1000	x (Fold >2 and ≤50)	
Cn1cc(-c2cccc(OCCO)c2)c(-c2cn(C)c(=O)c3[nH]c(-c4ccc(F)cc4F)cc23)cc1=O [Example 76]			> 1000	10 to 50	xxx (Fold >200 and ≤1000)	
Cn1cc(-c2cccc(CS(C)(=O)=O)c2)c(-c2cn(C)c(=O)c3[nH]c(-c4ccc(F)cc4F)cc23)cc1=O [Example 77]			> 1000	50 to 200	xx (Fold >50 and ≤200)	
CC(C)n1cc(-c2cc3c(-c4cc(=O)n(C)cc4-c4cccc(CN5CCOCC5)c4)cn(C)c(=O)c3[nH]2)cn1 [Example 78]			> 1000	10 to 50	xxx (Fold >200 and ≤1000)	
Cn1cc(-c2ccccc2Cl)c(-c2cn(C)c(=O)c3[nH]c(-c4ccc(F)cc4F)cc23)cc1=O [Example 79]			> 1000	10 to 50	xxx (Fold >200 and ≤1000)	
Cn1cc(-c2ccccc2)c(-c2cn(C)c(=O)c3[nH]c(-c4cccnc4)cc23)cc1=O [Example 80]			50 to 500	< 10	xx (Fold >50 and ≤200)	
Cn1ccc(-c2cc3c(-c4cc(=O)n(C)cc4-c4ccccc4)cn(C)c(=O)c3[nH]2)cc1=O [Example 81]			> 1000	50 to 200	xx (Fold >50 and ≤200)	
Cn1cc(-c2ccccc2)c(-c2cn(C)c(=O)c3[nH]c(-c4c(F)cccc4F)cc23)cc1=O [Example 82]			> 1000	50 to 200	xx (Fold >50 and ≤200)	
Cn1cc(-c2ccccc2)c(-c2cn(C)c(=O)c3[nH]c(-c4cccc(S(C)(=O)=O)c4)cc23)cc1=O [Example 83]			500 to 1000	< 10	xx (Fold >50 and ≤200)	
Cn1cc(-c2ccccc2)c(-c2cn(C)c(=O)c3[nH]c(-c4cccc(C5COC5)c4)cc23)cc1=O [Example 84]			50 to 500	< 10	xx (Fold >50 and ≤200)	
COCc1cccc(-c2cc3c(-c4cc(=O)n(C)cc4-c4ccccc4)cn(C)c(=O)c3[nH]2)c1 [Example 85]			> 1000	< 10	xxxx (Fold >1000)	
Cc1cc(-c2cc3c(-c4cc(=O)n(C)cc4-c4ccc(S(C)(=O)=O)cc4)cn(C)c(=O)c3[nH]2)cc(C)n1 [Example 86]			> 1000	200 to 1000	x (Fold >2 and ≤50)	

Compound	BD2 [1] [nM]	Selectivity (BD1/BD2) ([1]; nanoBRET assay) [x]	IC50 [2] [nM]	IC50 [3] [nM]	Fold Selectivity BRD4 BD1/BD2 [3]	Selectivity (BD1/BD2) ([1]; FRET)
Cc1cccc(C)c1Oc1cn(C2CC2)c(=O)cc1-c1cn(C)c(=O)c2[nH]c(-c3cccc(F)c3F)cc12 [Example 87]			> 1000	> 1000	— (Fold ≥0 and ≤2)	
Cc1cccc(C)c1Oc1cn(C)c(=O)cc1-c1cn(C)c(=O)c2[nH]c(-c3cc(F)c(F)cc3F)cc12 [Example 88]			> 1000	10 to 50	xxx (Fold >200 and ≤1000)	
Cc1cc(-c2cc3c(-c4cc(=O)n(C)cc4-c4cccc(S(C)(=O)=O)c4)cn(C)c(=O)c3[nH]2)cc(C)n1 [Example 89]			> 1000	50 to 200	xx (Fold >50 and ≤200)	
Cn1cc(-c2ccccc2)c(-c2cn(C)c(=O)c3[nH]c(-c4cccc(F)c4F)cc23)cc1=O [Example 90]			> 1000	10 to 50	xxx (Fold >200 and ≤1000)	
Cc1nn(C2COC2)cc1-c1cc2c(-c3cc(=O)n(C)cc3-c3ccccc3)cn(C)c(=O)c2[nH]1 [Example 91]			> 1000	10 to 50	xx (Fold >50 and ≤200)	
Cc1cccc(C)c1Oc1cn(C)c(=O)cc1-c1cn(C)c(=O)c2[nH]c(-c3cc(CO)ccc3F)cc12 [Example 92]			> 1000	10 to 50	xxx (Fold >200 and ≤1000)	
Cc1cccc(C)c1Oc1cn(C)c(=O)cc1-c1cn(C)c(=O)c2[nH]c(-c3ccc(F)c(F)c3F)cc12 [Example 93]			> 1000	50 to 200	xx (Fold >50 and ≤200)	
Cc1cccc(C)c1Oc1cn(C2CC2)c(=O)cc1-c1cn(C)c(=O)c2[nH]c(-c3cn(C)nc3C)cc12 [Example 94]			> 1000	10 to 50	xxx (Fold >200 and ≤1000)	
Cc1cccc(C)c1Oc1cn(C)c(=O)cc1-c1cn(C)c(=O)c2[nH]c(-c3cccc(C(F)F)c3F)cc12 [Example 95]			> 1000	50 to 200	xx (Fold >50 and ≤200)	
Cc1cccc(C)c1Oc1cn(C)c(=O)cc1-c1cn(C)c(=O)c2[nH]c(-c3cnn(CC#N)c3)cc12 [Example 96]			500 to 1000	10 to 50	x (Fold >2 and ≤50)	
Cc1cccc(C)c1Oc1cn(C)c(=O)cc1-c1cn(C)c(=O)c2[nH]c(-c3ccc(OC(F)F)cc3F)cc12 [Example 97]			> 1000	10 to 50	xxx (Fold >200 and ≤1000)	
Cc1cccc(C)c1Oc1cn(C)c(=O)cc1-c1cn(C)c(=O)c2[nH]c(-c3cccc(C(F)(F)F)c3F)cc12 [Example 98]			> 1000	50 to 200	xx (Fold >50 and ≤200)	
Cc1cccc(-c2cc3c(-c4cc(=O)n(C)cc4Oc4c(C)cccc4C)cn(C)c(=O)c3[nH]2)c1F [Example 99]			> 1000	10 to 50	xxx (Fold >200 and ≤1000)	
Cc1sc2c(c1C)C(c1ccc(Cl)cc1)=N[C@@H](CC(=O)Nc1ccc(O)cc1)c1nnc(C)n1-2 [MK-8628/OTX-015]	26	1.5				
Cc1noc2c1-c1ccccc1C(c1ccc(Cl)cc1)=N[C@H]2CC(N)=O [Pelabresib]	17					5x (FRET)
NUV-868	2					1,460x (FRET)
